We go through one compound from ChEMBL document CHEMBL5143564, “PES derivative PESA is a potent tool to globally profile cellular targets of PES” (Bioorg Med Chem Lett, 2022).

Calls of active or inactive are those of the source. The calls are words filed in the database; no cut-off is given here.

Series [1] deals with DOHH-2. As to the kind of experiment: Cytotoxicity against human DOHH-2 cells up to 20 uM measured after 24 hrs. In kind it is functional, cell-based.
Series [2] has as its target T1, Peroxiredoxin-1 (Homo sapiens) (UniProt Q06830).
T1 sequence (whole entry): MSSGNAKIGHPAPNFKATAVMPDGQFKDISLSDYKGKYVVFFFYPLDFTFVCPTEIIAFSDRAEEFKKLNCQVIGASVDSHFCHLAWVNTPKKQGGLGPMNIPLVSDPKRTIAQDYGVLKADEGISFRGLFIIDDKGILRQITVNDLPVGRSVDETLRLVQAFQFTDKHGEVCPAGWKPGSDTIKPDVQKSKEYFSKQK
As to the kind of experiment: Binding affinity to PRDX1 in human MDA-MB-453 cells measured after 6 hrs by pull-down assay. In kind it is cell-based. The conditions noted are these: dose <= 20.0 µM, DDE = dose-dependent effect.

Series [3] has as its system DOHH-2. As to the kind of experiment: Induction of autophagy in human DOHH-2 cells assessed as reduction in p62 expression at 8 uM measured after 4 to 24 hrs by Western blot analysis. Format: functional, cell-based. The conditions noted are these: time 4-24 hrs. Background: A western blot detects proteins with antibodies after separation by electrophoresis.
Series [4] in a line: GSH reactivity in pH 7.4 buffer assessed as GSH adduct formation at 1 mM by HPLC analysis. In kind it is physicochemical. The conditions noted are these: pH 7.4, 1000 µM.
Series [5] deals with T2, Peroxiredoxin-2 (Homo sapiens) (UniProt P32119).
T2 sequence (whole entry): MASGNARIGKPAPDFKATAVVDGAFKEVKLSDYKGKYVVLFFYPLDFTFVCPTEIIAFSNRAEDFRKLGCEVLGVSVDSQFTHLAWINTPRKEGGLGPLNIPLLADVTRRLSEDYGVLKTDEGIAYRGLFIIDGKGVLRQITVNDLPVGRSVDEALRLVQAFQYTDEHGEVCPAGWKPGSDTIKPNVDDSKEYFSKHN
As to the kind of experiment: Binding affinity to PRDX2 in human DOHH-2 cells by MS analysis. Format: cell-based.

The species named for series [6] is Homo sapiens. Put plainly: Binding affinity to ADP-bound full-length human HSP70 assessed as Cys603 adduct formation by size exclusion chromatography.
Series [7] has as its target T3, Tubulin beta (Homo sapiens) (UniProt P68371+Q9H4B7+Q13509+P04350+Q3ZCM7+P07437+Q13885+Q9BVA1+Q9BUF5+A6NNZ2). Put plainly: Binding affinity to beta-tubulin in human MDA-MB-453 cells measured after 6 hrs by pull-down assay. In kind it is cell-based. The conditions noted are these: dose <= 20.0 µM, DDE = dose-dependent effect.
The subject of the next series is Jurkat. As to the kind of experiment: Cytotoxicity against human Jurkat T cells up to 20 uM measured after 24 hrs. Format: functional, cell-based.
Series [8] has as its target T4, Tubulin alpha (Homo sapiens) (UniProt P0DPH7+P68366+Q71U36+P68363+Q9BQE3+Q6PEY2+A6NHL2+Q9NY65). As to the kind of experiment: Binding affinity to alpha-tubulin in human DOHH-2 cells measured after 6 hrs by pull-down assay. Format: cell-based. The conditions noted are these: DDE = dose-dependent effect.
Series [9] concerns the target T3, Tubulin beta (Homo sapiens). As to the kind of experiment: Binding affinity to beta-tubulin in human DOHH-2 cells measured after 6 hrs by pull-down assay. The conditions noted are these: DDE = dose-dependent effect. In kind it is cell-based.
Series [10] can be described thus: GSH reactivity in pH 7.4 buffer assessed as GSH adduct formation by measuring molecular weight at 1 mM by Q-TOF LC/MS analysis. The conditions noted are these: pH 7.4, 1000 µM. Format: physicochemical.
The target in series [11] is T1, Peroxiredoxin-1 (Homo sapiens). As to the kind of experiment: Binding affinity to PRDX1 in human DOHH-2 cells measured after 6 hrs by pull-down assay. Format: cell-based. The conditions noted are these: DDE = dose-dependent effect.
The target of series [12] is T5, Protein disulfide-isomerase A6 (Homo sapiens) (UniProt Q15084).
T5 sequence (whole entry): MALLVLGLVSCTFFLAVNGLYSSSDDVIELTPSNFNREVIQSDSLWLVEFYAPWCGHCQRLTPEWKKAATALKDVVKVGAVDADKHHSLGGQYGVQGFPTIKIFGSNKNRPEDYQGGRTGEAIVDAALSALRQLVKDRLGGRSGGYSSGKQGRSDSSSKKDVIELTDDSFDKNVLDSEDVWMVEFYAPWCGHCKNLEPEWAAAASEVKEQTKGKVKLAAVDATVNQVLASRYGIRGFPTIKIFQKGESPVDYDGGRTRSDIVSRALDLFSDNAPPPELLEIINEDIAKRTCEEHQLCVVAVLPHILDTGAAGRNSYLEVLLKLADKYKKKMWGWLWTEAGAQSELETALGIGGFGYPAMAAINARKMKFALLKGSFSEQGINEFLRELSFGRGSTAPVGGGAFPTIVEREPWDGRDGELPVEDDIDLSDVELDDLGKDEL
As to the kind of experiment: Binding affinity to PDIA6 in human DOHH-2 cells measured after 6 hrs by pull-down assay. In kind it is cell-based. The conditions noted are these: DDE = dose-dependent effect.

For series [13], the species on record is Homo sapiens. Put plainly: Binding affinity to ADP-bound full-length human HSP70 assessed as Cys603 adduct formation at SBDalpha domain by LC-MS/MS analysis.
The target of series [14] is T6, Plastin-2 (Homo sapiens) (UniProt P13796).
T6 sequence (whole entry): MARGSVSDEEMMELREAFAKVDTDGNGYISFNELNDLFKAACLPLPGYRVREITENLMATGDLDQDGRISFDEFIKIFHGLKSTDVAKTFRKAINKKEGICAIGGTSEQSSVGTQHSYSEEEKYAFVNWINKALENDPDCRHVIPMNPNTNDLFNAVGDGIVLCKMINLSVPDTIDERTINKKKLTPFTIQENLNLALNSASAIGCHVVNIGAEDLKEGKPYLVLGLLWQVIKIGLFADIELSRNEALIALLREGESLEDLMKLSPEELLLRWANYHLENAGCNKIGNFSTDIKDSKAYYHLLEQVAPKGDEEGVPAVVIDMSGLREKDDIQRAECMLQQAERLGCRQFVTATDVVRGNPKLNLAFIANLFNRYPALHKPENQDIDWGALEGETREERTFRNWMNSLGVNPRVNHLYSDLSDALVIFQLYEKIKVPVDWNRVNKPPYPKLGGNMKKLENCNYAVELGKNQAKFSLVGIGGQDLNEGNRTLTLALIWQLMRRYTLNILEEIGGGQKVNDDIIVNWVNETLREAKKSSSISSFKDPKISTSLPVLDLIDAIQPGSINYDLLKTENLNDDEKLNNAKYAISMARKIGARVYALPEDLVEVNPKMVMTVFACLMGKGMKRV
As to the kind of experiment: Binding affinity to plastin-2 in human DOHH-2 cells by MS analysis. In kind it is cell-based.

The target in series [15] is T4, Tubulin alpha (Homo sapiens). Put plainly: Binding affinity to alpha-tubulin in human DOHH-2 cells by MS analysis. In kind it is cell-based.
The target in series [16] is T6, Plastin-2 (Homo sapiens). As to the kind of experiment: Binding affinity to plastin-2 in human DOHH-2 cells measured after 6 hrs by pull-down assay. In kind it is cell-based. The conditions noted are these: DDE = dose-dependent effect.
For series [17], the target named is T7, Thioredoxin-dependent peroxide reductase, mitochondrial (Homo sapiens) (UniProt P30048).
T7 sequence (whole entry): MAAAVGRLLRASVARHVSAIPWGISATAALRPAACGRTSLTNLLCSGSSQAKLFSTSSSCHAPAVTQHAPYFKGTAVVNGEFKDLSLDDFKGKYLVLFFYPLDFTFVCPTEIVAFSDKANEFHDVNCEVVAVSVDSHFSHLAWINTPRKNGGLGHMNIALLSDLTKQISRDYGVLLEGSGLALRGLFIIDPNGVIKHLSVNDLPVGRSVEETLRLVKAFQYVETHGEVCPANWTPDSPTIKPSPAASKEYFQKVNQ
Put plainly: Binding affinity to PRDX3 in human MDA-MB-453 cells measured after 6 hrs by pull-down assay. In kind it is cell-based. The conditions noted are these: dose <= 20.0 µM, DDE = dose-dependent effect.

The test system of a further series is HepG2. As to the kind of experiment: Cytotoxicity against human HepG2 cells measured after 72 hrs. In kind it is functional, cell-based.
The subject of series [18] is DOHH-2. Put plainly: Induction of apoptosis in human DOHH-2 cells assessed as increase in cleaved PARP expression at 8 uM measured after 4 to 24 hrs by Western blot analysis. The conditions noted are these: time 4-24 hrs. In kind it is functional, cell-based.

`C#Cc1cccc(C#CS(N)(=O)=O)c1`: the result (in the series on DOHH-2 [1]; in the series on DOHH-2 [3]; in series [5]; in the series filed under Homo sapiens [6]; in the series with Jurkat; in the series listed under Homo sapiens [13]) was Active. Besides, the result (on Plastin-2 (Homo sapiens) [14]; in series [15]; in the series with HepG2; with DOHH-2 [18]) was Active. For the same compound, the Activity entry is “Dde” in series [2]; “Active” in series [4]; “Dde” in [7]; “Dde” in series [8]; “Dde” in series [9]; 513 Da in series [10]. For the same compound, the Activity entry (in series [11]; in series [12]; on Plastin-2 (Homo sapiens) [16]; in series [17]) was “Dde” in each case.
